# In ChEMBL document CHEMBL4477195, “Bridged Epipolythiodiketopiperazines from Penicillium raciborskii, an Endophytic Fungus of Rhododendron tomentosum Harmaja” (2016):
# Activity calls are given as the source filed them. The calls are words filed in the database; no cut-off is given here.
# What was measured:
# Fusarium oxysporum [1] = assay: Antifungal activity against Fusarium oxysporum assessed as fungal growth inhibition at 0.38 mM incubated in dark for 48 hrs by microspectrophotometric analysis; assay type: functional, organism-based
# Botrytis cinerea [2] = assay: Antifungal activity against Botrytis cinerea assessed as fungal growth inhibition at 0.38 mM incubated in dark for 48 hrs by microspectrophotometric analysis; assay type: functional, organism-based
# Botrytis cinerea [3] = assay: Antifungal activity against Botrytis cinerea assessed as fungal growth inhibition at 10 to 400 ug/mL incubated in dark for 48 hrs by microspectrophotometric analysis; assay type: functional
# Verticillium dahliae [4] = assay: Antifungal activity against Verticillium dahliae assessed as fungal growth inhibition at 10 to 400 ug/mL incubated in dark for 48 hrs by microspectrophotometric analysis; assay type: functional
# Verticillium dahliae [5] = assay: Antifungal activity against Verticillium dahliae assessed as fungal growth inhibition at 0.76 mM incubated in dark for 48 hrs by microspectrophotometric analysis; assay type: functional, organism-based
# Verticillium dahliae [6] = assay: Antifungal activity against Verticillium dahliae assessed as fungal growth inhibition at 0.38 mM incubated in dark for 48 hrs by microspectrophotometric analysis; assay type: functional, organism-based
# Fusarium oxysporum [7] = assay: Antifungal activity against Fusarium oxysporum assessed as fungal growth inhibition at 0.76 mM incubated in dark for 48 hrs by microspectrophotometric analysis; assay type: functional, organism-based
# Botrytis cinerea [8] = assay: Antifungal activity against Botrytis cinerea assessed as fungal growth inhibition at 0.76 mM incubated in dark for 48 hrs by microspectrophotometric analysis; assay type: functional, organism-based
smiles,measurement,setting,value
COc1ccc(C2SSS[C@@]34C[C@]5(O)[C@H](O)C=C[C@@H](O)[C@@H]5ON3C(=O)[C@@H]2N(C)C4=O)c(O)c1OC (stereo partly drawn),growth inhibition (GI),Fusarium oxysporum [1],Active
same,growth inhibition (GI),Botrytis cinerea [2],Active
same,growth inhibition (GI),Botrytis cinerea [3],57%
same,growth inhibition (GI),Verticillium dahliae [4],45%
same,growth inhibition (GI),Verticillium dahliae [5],Active
same,growth inhibition (GI),Verticillium dahliae [6],Active
same,growth inhibition (GI),Fusarium oxysporum [7],Active
same,growth inhibition (GI),Botrytis cinerea [8],Active
